Here are results for two compounds from patent publication US5441940A, “Process for the preparation of water soluble primycin and its components and pharmaceutical compositions containing them” (Chinoin Gyogyszer es Vegyeszeti Termekek Gyara Rt., priority 1988, dated 1995).

Structures are written as SMILES.

One data set deals with Bacillus subtilis. Kind of data set: Agar diffusion test, minimum inhibitory concentration (MIC) on Bacillus subtilis. It is filed as cell-based, Bacillus subtilis ATCC 6633. Conditions: for MIC: Table II, agar diffusion test on Bacillus subtilis; for biological activity (on Bacillus subtilis): preparation examples. The method, then: Thin layer chromatography was performed on a Kieselgel 60 DC Alufolien F254 plate utilizing the upper phase of a 38:2:10:50 v/v mixture of butanol, ethanol, acetic acid and water as solvent and a mixture of vanillin and sulfuric acid at 105° C. as detecting agent. Biological evaluation was performed by agar diffusion test on Bacillus subtilis.
Agar diffusion technique was applied for the biological evaluation of primycin. As test organism Bacillus subtilis ATCC 6633 was applied.
Bacillus subtilis ATCC 6633 was cultivated on a Schaeffer medium (Nutrient Broth No. 2/oxoid) with the following composition:
The solution was heated in a pressurized vessel for 30 minutes at a pressure of 1.5 atmospheres, thereafter the pE was adjusted to 7.0-7.2 with 5-6 drops of 10N sodium hydroxide solution, 90 ml portions of the solution were poured into cultivating dishes, and the portions were supplemented with 10 ml, each, of the following solutions:
a) 236 mg (10^-3 mole) of Ca(NO3)2. 4H2 O dissolved in 100 ml of distilled water, and
b) […] (10^-5 mole) of MnCl2.4H2 O dissolved in 100 ml of distilled water.
The titrating nutrient medium was prepared as follows:
5 g of meat extract (Beef Extract Difco), 0.5 g of peptone (Bacto Peptone Difco), 1 g of Na2 HPO4 and 0.1 g of KH2 PO4 were dissolved in 100 ml of distilled water, the solution was boiled for 2 hours, and then the pH was adjusted to 8. The warm solution was filtered, allowed to cool, the filtrate was diluted with 900 ml of distilled water, and 20 g of agar (Bacto Agar Difco), dissolved in a Koch pot, were added to 1 liter of the solution. The pH of the warm solution was checked. 100 ml portions of the resulting solution were filled into storage flasks and then heat treated for 20 minutes in a pressurized vessel under a pressure of 1.5 atmospheres. […]
Solutions containing 20-50 /ug/ml of active agent were prepared from the substances to be examined [starting water insoluble primycin; water soluble primycin; a mixture of the compounds of formulae (A1) and (A3); a compound of formula (A1); a compound of formula (A3)] in water or in a 1:1:2 v/v mixture of butanol, ethanol and water, and the resulting solutions were diluted with buffered distilled water (0.15 molar phosphate buffer, pH=7.6) to concentrations of 0.05-0.1, 0.5-1.0 and 2.0 /ug/ml. […] Thereafter the diameters of the diffusive extinction zones were measured in mm, the obtained values were plotted on a semi-logarithmic scale against the concentrations of the standard serial dilutions, and the activity values were determined by extrapolation.

Another data set in a line: Water solubility. In kind it is physicochemical. Conditions: for water solubility (product containing bound NH4+ and ammonium hydrocarbonate contaminations): before repeated ion exchange chromatography, m.p. 159-161 °C.
Data set [1] can be described thus: Gelling of aqueous solutions (concentration-, time- and temperature-dependent). Conditions: 5-10 mg/ml aqueous solution of the single component. In kind it is physicochemical. The procedure: Water soluble primycin has a further very interesting characteristic. It has been observed that its aqueous solution spontaneously gellifies, the gelling time being dependent on the primycin content of the solution. As it appears from the curves of FIG. 1, the complete gelling of a 5-10 mg/ml aqueous primycin solution requires about 1-2 days, that of a 20-40 mg/ml primycin solution requires about 6-12 hours, whereas an aqueous primycin solution comprising more than 50 mg/ml of primycin completely gellifies even within 1-2 hours. The concentration-, time- and temperature-dependent gelling (polymerization) can be attributed presumably to the changes in orientation of the --OH groups in the molecule.
The gelling properties of the individual components of formulae (A1) and (A3) and those of the two-component mixture have also been examined. […] It can be assumed that this delay in gelling is connected with a change in conformation or with the orientation of the hydroxy groups.

`CCCCC1C(=O)OC(C(C)C(O)CCCNC(=N)N)C(C)C=C(C)CCCCC(O)CC(O)CC(O)CC(O)CC(O)C(OC2OC(CO)C(O)C2O)C=C(C)C(O)CCCC(O)CCCC(O)CCC(C)C1O` (stereo not shown) [Compound of formula (A3)]: in the data set with Bacillus subtilis, the MIC was 0.5 to 1.0 µg/mL and the “biological activity (on Bacillus subtilis)” value is reported as 0.5-1 /ug/ml. Moreover, in the data set “Water solubility”, the “water solubility (product containing bound NH4+ and ammonium hydrocarbonate contaminations)” value was “about 5 mg/ml”. Further, the “water solubility (product containing bound NH4+ and ammonium hydrocarbonate contaminations)” value in the data set “Water solubility” (listed as component of formula (A3)) lay within 2000 to 6000 µg/mL. Moreover, in the data set “Water solubility” (water, listed as component of formula (A3)), the Water solubility result is reported as “about 50 mg/ml”. Besides, in data set [1], the “storage of aqueous solution without any observable change” value is reported as “can be stored for days (maximum for one week) without any observable change”.

`CCCCC1C(=O)OC(C(C)C(O)CCCNC(=N)N)C(C)C=C(C)CCCCC(O)CC(O)CC(O)CC(O)CC(O)C(OC2OC(CO)C(O)C2O)C=C(C)C(O)CCCC(O)CCCC(O)CCC(C)C1O` (stereo not shown) [Compound of formula (A1)]: the MIC against Bacillus subtilis lay within 0.03 to 0.06 µg/mL. Moreover, the “biological activity (on Bacillus subtilis)” value in the data set on Bacillus subtilis (listed as component of formula (A1)) is given as 0.03-0.06 /ug/ml. In addition, the “water solubility (in words)” value in the data set “Water solubility” is given as “well soluble in water”. Moreover, in data set [1], the “storage of aqueous solution without any observable change” value is recorded as “can be stored for days (maximum for one week) without any observable change”.
